pIC50: −log10 of the molar value.
Tests used:
DNA topoisomerase II [1] = molecular target: T1, DNA topoisomerase II (Homo sapiens, UniProt P11388+Q02880); assay: Inhibition of DNA topoisomerase 2 in human MCF7 cells at 25 uM incubated for 18 to 24 hrs by kinase assay relative to control; type: cell-based
DNA topoisomerase II [2] = molecular target: T1, DNA topoisomerase II; assay: Inhibition of DNA topoisomerase 2 in human MCF7 cells at 5 uM incubated for 18 to 24 hrs by kinase assay relative to control; type: cell-based
DNA topoisomerase II [3] = molecular target: T1, DNA topoisomerase II; assay: Inhibition of DNA topoisomerase 2 in human HeLa cells at 1 uM incubated for 18 to 24 hrs by kinase assay relative to control; type: cell-based
DNA topoisomerase II [4] = molecular target: T1, DNA topoisomerase II; assay: Inhibition of DNA topoisomerase 2 in human HeLa cells incubated for 18 to 24 hrs by kinase assay; type: cell-based
DNA topoisomerase II [5] = molecular target: T1, DNA topoisomerase II; assay: Inhibition of DNA topoisomerase 2 in human HeLa cells at 0.2 uM incubated for 18 to 24 hrs by kinase assay relative to control; type: cell-based
DNA topoisomerase II [6] = molecular target: T1, DNA topoisomerase II; assay: Inhibition of DNA topoisomerase 2 in human MCF7 cells incubated for 18 to 24 hrs by kinase assay; type: cell-based
HeLa [7] = assay: Cytotoxicity against human HeLa cells assessed as cell growth inhibition at 3.125 to 100 uM incubated for 72 hrs and measured after 2 hrs by microplate reader based WST-1 assay relative to control; type: functional
MCF7 [8] = assay: Cytotoxicity against human MCF7 cells assessed as cell growth inhibition at 3.125 to 100 uM incubated for 72 hrs and measured after 2 hrs by microplate reader based WST-1 assay relative to control; type: functional
HCT-116 [9] = assay: Cytotoxicity against human HCT116 cells assessed as cell growth inhibition at 3.125 to 100 uM incubated for 72 hrs and measured after 2 hrs by microplate reader based WST-1 assay relative to control; type: functional
HepG2 [10] = assay: Cytotoxicity against human HepG2 cells assessed as cell growth inhibition at 3.125 to 100 uM incubated for 72 hrs and measured after 2 hrs by microplate reader based WST-1 assay relative to control; type: functional
MCF7 [11] = assay: Cytotoxicity against human MCF7 cells assessed as increase in growth inhibition by measuring decrease in cell viability incubated for 72 hrs and measured after 2 hrs by microplate reader based WST-1 assay; type: functional; details: for pIC50: Homo sapiens, MCF7, read-out: IC50
HCT-116 [12] = assay: Cytotoxicity against human HCT116 cells assessed as increase in growth inhibition by measuring decrease in cell viability incubated for 72 hrs and measured after 2 hrs by microplate reader based WST-1 assay; type: functional; details: for IC50: hct-116
HeLa [13] = assay: Cytotoxicity against human HeLa cells assessed as increase in growth inhibition by measuring decrease in cell viability incubated for 72 hrs and measured after 2 hrs by microplate reader based WST-1 assay; type: functional; details: for IC50: hela; for pIC50: Homo sapiens, HeLa, read-out: IC50
HepG2 [14] = assay: Cytotoxicity against human HepG2 cells assessed as increase in growth inhibition by measuring decrease in cell viability incubated for 72 hrs and measured after 2 hrs by microplate reader based WST-1 assay; type: functional; details: for IC50: hepg2; for pIC50: Homo sapiens, HepG2, read-out: IC50
HeLa [15] = assay: Induction of apoptosis in human HeLa cells assessed as increase in caspase 3 activation by measuring fold increase in caspase 3 level by fluorescence based solid phase sandwich ELISA; type: functional
MCF7 [16] = assay: Induction of apoptosis in human MCF7 cells assessed as increase in caspase 3 activation by measuring fold increase in caspase 3 level by fluorescence based solid phase sandwich ELISA; type: functional
HeLa [17] = assay: Induction of apoptosis in human HeLa cells assessed as increase in caspase 9 activation by measuring fold increase in caspase 9 level by fluorescence based solid phase sandwich ELISA; type: functional
MCF7 [18] = assay: Induction of apoptosis in human MCF7 cells assessed as increase in caspase 9 activation by measuring fold increase in caspase 9 level by fluorescence based solid phase sandwich ELISA; type: functional
[19] = molecular target: Epidermal growth factor receptor (Homo sapiens, UniProt P00533); assay: Inhibition of EGFR-TK in human MCF7 cells overexpressing EGFR incubated for 18 to 24 hrs by kinase assay; type: cell-based
Epidermal growth factor receptor, sequence (P00533 whole entry): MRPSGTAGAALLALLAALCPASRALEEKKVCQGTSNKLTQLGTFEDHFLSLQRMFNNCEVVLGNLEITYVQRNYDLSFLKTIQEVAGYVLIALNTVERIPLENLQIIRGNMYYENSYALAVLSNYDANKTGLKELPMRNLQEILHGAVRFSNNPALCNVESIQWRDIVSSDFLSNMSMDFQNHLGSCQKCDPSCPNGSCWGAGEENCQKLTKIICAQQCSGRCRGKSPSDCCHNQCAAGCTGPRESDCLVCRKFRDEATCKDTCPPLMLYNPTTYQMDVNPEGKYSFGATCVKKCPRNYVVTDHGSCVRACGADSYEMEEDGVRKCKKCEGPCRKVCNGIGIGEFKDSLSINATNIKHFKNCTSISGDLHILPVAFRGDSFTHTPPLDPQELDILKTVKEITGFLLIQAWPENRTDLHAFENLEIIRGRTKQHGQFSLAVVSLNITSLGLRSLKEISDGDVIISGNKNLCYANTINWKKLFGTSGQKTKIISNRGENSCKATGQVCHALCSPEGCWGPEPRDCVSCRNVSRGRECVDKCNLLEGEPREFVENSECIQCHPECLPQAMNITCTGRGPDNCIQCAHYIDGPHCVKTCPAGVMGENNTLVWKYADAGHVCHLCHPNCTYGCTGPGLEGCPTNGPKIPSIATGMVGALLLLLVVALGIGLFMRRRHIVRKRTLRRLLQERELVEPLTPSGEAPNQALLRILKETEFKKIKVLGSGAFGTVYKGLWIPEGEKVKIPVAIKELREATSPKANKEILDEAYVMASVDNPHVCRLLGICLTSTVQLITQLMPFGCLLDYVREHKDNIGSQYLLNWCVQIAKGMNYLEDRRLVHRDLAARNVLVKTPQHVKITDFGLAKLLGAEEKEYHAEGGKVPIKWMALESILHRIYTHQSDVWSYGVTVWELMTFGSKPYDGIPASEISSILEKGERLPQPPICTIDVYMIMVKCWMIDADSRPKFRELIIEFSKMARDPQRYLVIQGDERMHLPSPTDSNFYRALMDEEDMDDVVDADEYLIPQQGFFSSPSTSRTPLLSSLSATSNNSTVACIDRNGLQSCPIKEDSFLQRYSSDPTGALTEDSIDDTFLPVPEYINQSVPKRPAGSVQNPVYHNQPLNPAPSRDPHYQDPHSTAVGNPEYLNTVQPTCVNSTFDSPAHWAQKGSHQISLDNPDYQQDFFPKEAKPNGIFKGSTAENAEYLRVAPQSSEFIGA

DNA topoisomerase II [20] = molecular target: T1, DNA topoisomerase II; assay: Inhibition of DNA topoisomerase 2 in human MCF7 cells at 1 uM incubated for 18 to 24 hrs by kinase assay relative to control; type: cell-based
MCF7 [21] = assay: Induction of apoptosis in human MCF7 cells assessed as viable cells after 24 hrs by Annexin V-FITC/propidium iodide staining-based FACS analysis (reference value: 99.34%); type: functional
MCF7 [22] = assay: Cell cycle arrest in human MCF7 cells assessed as accumulation at G0/G1 phase at IC50 after 24 hrs by propidium iodide staining based FACS analysis (reference value: 67.39%); type: functional
MCF7 [23] = assay: Cell cycle arrest in human MCF7 cells assessed as accumulation at G2/M phase at IC50 after 24 hrs by propidium iodide staining based FACS analysis (reference value: 4.82%); type: functional
MCF7 [24] = assay: Induction of apoptosis in human MCF7 cells assessed as necrotic cells after 24 hrs by Annexin V-FITC/propidium iodide staining-based FACS analysis (reference value: 0.15%); type: functional
MCF7 [25] = assay: Induction of apoptosis in human MCF7 cells assessed as late apoptotic cells after 24 hrs by Annexin V-FITC/propidium iodide staining-based FACS analysis (reference value: 0.22%); type: functional
MCF7 [26] = assay: Cell cycle arrest in human MCF7 cells assessed as accumulation at S phase at IC50 after 24 hrs by propidium iodide staining based FACS analysis (reference value: 27.13%); type: functional
MCF7 [27] = assay: Cell cycle arrest in human MCF7 cells assessed as accumulation at pre G1/apoptotic phase at IC50 after 24 hrs by propidium iodide staining based FACS analysis (reference value: 0.66%); type: functional
MCF7 [28] = assay: Induction of apoptosis in human MCF7 cells assessed as early apoptotic cells after 24 hrs by Annexin V-FITC/propidium iodide staining-based FACS analysis (reference value: 0.29%); type: functional
MCF7 [29] = assay: Induction of apoptosis in human MCF7 cells after 24 hrs by Annexin V-FITC/propidium iodide staining-based FACS analysis; type: functional, cell-based
DNA topoisomerase II [30] = molecular target: T1, DNA topoisomerase II; assay: Inhibition of DNA topoisomerase 2 in human MCF7 cells at 0.2 uM incubated for 18 to 24 hrs by kinase assay relative to control; type: cell-based

CC[C@@]1(O)C(=O)OCc2c1cc1n(c2=O)Cc2cc3c(CN(C)C)c(O)ccc3nc2-1 [TOPOTECAN]
inhibition (DNA topoisomerase II [1]): 92.8%
inhibition (DNA topoisomerase II [2]): 85.6%
inhibition (DNA topoisomerase II [3]): 66.5%
IC50 (DNA topoisomerase II [4]): 0.73 µM
inhibition (DNA topoisomerase II [5]): 32%
IC50 (DNA topoisomerase II [6]): 0.48 µM

Clc1nc2ccccc2cc1C(OCc1ccc(Br)cc1)c1cccs1 (stereo not given)
growth inhibition (GI) (HeLa [7]): 30.89%
growth inhibition (GI) (MCF7 [8]): <10%
growth inhibition (GI) (HCT-116 [9]): 21.98%
growth inhibition (GI) (HepG2 [10]): <10%

Clc1nc2ccccc2cc1C(OCc1ccccc1)c1cccs1 (stereo not given)
growth inhibition (GI) (HeLa [7]): <10%
pIC50 (MCF7 [11]): 3.96
growth inhibition (GI) (MCF7 [8]): 45.63%
IC50 (HCT-116 [12]): Not Active
IC50 (HeLa [13]): Not Active
growth inhibition (GI) (HCT-116 [9]): <10%
IC50 (HepG2 [14]): Not Active
growth inhibition (GI) (HepG2 [10]): <10%

CNC(=O)c1cc(Oc2ccc(NC(=O)Nc3ccc(Cl)c(C(F)(F)F)c3)cc2)ccn1 [SORAFENIB]
fold change (FC) (HeLa [15]): 35.5
fold change (FC) (MCF7 [16]): 34.2

Clc1ccc(-n2cc(COC(c3cccs3)c3cc4ccccc4nc3Cl)nn2)cc1 (stereo not given)
growth inhibition (GI) (HeLa [7]): <10%
growth inhibition (GI) (MCF7 [8]): <10%
growth inhibition (GI) (HCT-116 [9]): 23.13%
growth inhibition (GI) (HepG2 [10]): 8.39%

COc1ccc(-n2cc(COC(c3cccs3)c3cc4ccccc4nc3Cl)nn2)cc1 (stereo not given)
growth inhibition (GI) (HeLa [7]): <10%
growth inhibition (GI) (MCF7 [8]): <10%
growth inhibition (GI) (HCT-116 [9]): 32.52%
growth inhibition (GI) (HepG2 [10]): <10%

O=c1[nH]cc(F)c(=O)[nH]1 [FLUOROURACIL]
pIC50 (MCF7 [11]): < 4.00
pIC50 (HCT-116 [12]; Homo sapiens, HCT-116, read-out: IC50): 4.19
fold change (FC) (HeLa [17]): 94.4
pIC50 (HeLa [13]): 4.69
fold change (FC) (MCF7 [18]): 26 - 26.1
pIC50 (HepG2 [14]): < 4.00

Cc1cc(C)c(COC(c2cccs2)c2cc3ccccc3nc2Cl)c(C)c1 (stereo not given)
growth inhibition (GI) (HeLa [7]): 42.48%
growth inhibition (GI) (MCF7 [8]): 21.49%
growth inhibition (GI) (HCT-116 [9]): 26.37%
growth inhibition (GI) (HepG2 [10]): 24.76%

Fc1ccc(COC(c2cccs2)c2cc3ccccc3nc2Cl)cc1 (stereo not given)
inhibition (DNA topoisomerase II [1]): 93.7%
growth inhibition (GI) (HeLa [7]): 66.21%
pIC50 [19]: 5.56
pIC50 (MCF7 [11]): 4.42
inhibition (DNA topoisomerase II [2]): 88.5%
inhibition (DNA topoisomerase II [20]): 70.8%
Activity (MCF7 [21]): 83.96%
growth inhibition (GI) (MCF7 [8]): 64.97%
IC50 (HCT-116 [12]): Not Active
pIC50 (HeLa [13]): 4.13
growth inhibition (GI) (HCT-116 [9]): <10%
Activity (MCF7 [22]): 47.2%
Activity (MCF7 [23]): 19.33%
Activity (MCF7 [24]): 0.83%
Activity (MCF7 [25]): 8.42%
fold change (FC) (MCF7 [18]): 40.6
Activity (MCF7 [26]): 17.19%
Activity (MCF7 [27]): 16.28%
Activity (MCF7 [28]): 7.03%
Activity (MCF7 [29]): Dose-dependent effect
inhibition (DNA topoisomerase II [30]): 43.3%
IC50 (HepG2 [14]): Not Active
fold change (FC) (MCF7 [16]): 30.8
growth inhibition (GI) (HepG2 [10]): 30.53%
IC50 (DNA topoisomerase II [6]): 0.23 µM

COc1cc(-c2cc(COC(c3cccs3)c3cc4ccccc4nc3Cl)on2)cc(OC)c1OC (stereo not given)
growth inhibition (GI) (HeLa [7]): <10%
growth inhibition (GI) (MCF7 [8]): <10%
growth inhibition (GI) (HCT-116 [9]): <10%
growth inhibition (GI) (HepG2 [10]): 14.57%

Oc1ccc(-c2cc(COC(c3cccs3)c3cc4ccccc4nc3Cl)on2)cc1 (stereo not given)
growth inhibition (GI) (HeLa [7]): <10%
IC50 (MCF7 [11]; mcf7): Not Active
growth inhibition (GI) (MCF7 [8]): <10%
IC50 (HCT-116 [12]): Not Active
IC50 (HeLa [13]): Not Active
growth inhibition (GI) (HCT-116 [9]): 14.27%
pIC50 (HepG2 [14]): 3.75
growth inhibition (GI) (HepG2 [10]): 64.51%

Reference: ChEMBL document CHEMBL4396926, “Design, Synthesis and Anticancer Evaluation of New Substituted Thiophene-Quinoline Derivatives” (Bioorg Med Chem, 2019)
